In US11007181B2, “Cyclopamine analogs” (Infinity Pharmaceuticals, Inc., priority 2006, dated 2021):

Legend:
BXPC-3 cells = assay: Pancreatic cancer model: BXPC-3 subcutaneous tumors in mice, tumor volume; type: in vivo, human; conditions: 40 mg/kg/day, 25 daily doses, p=0.0309
Description: (§1) The activity of Compound 42 was tested in a human pancreatic model: BXPC-3 cells were implanted subcutaneously into the flanks of the right legs of mice. On day 42 post-tumor implant, the mice were randomized into two groups to receive either Vehicle (30% HPBCD) or Compound 42. Compound 42 was dosed at 40 mg/kg/day. […] At the end of the study, the tumors were harvested 4 hours post the last dose to evaluate an on target response by q-RT-PCR analysis of the HH pathway genes.

murine Gli-1 mRNA = assay: Pancreatic cancer model: q-RT-PCR of HH pathway genes in harvested tumors, murine Gli-1; type: in vivo; conditions: BXPC-3 tumors harvested 4 hours post last dose, 40 mg/kg/day, vs Vehicle group
Description: as §1

Gli-1 mRNA = assay: Medulloblastoma model: Ptch1/Hic1 subcutaneous allografts, Gli-1 mRNA expression; type: in vivo, mouse; conditions: single oral dose, subcutaneously implanted medulloblastoma tumors, 8 hours post dose
Description: (§2) The activity of Compound 42 was also evaluated in a transgenic mouse model of medulloblastoma. Mice that are heterozygous for loss of function mutations in the tumor suppressors Patched1 (Ptch1) and Hypermethylated in Cancer (Hic1) develop spontaneous medulloblastoma. […] When passaged as subcutaneous allografts, these tumors grow aggressively and are Hedgehog pathway-dependent. This model was employed to evaluate the efficacy of orally administered Compound, and to correlate activity with drug exposure in plasma and tumors.

medulloblastoma = assay: Medulloblastoma model: Ptch1/Hic1 subcutaneous allografts, tumor growth and survival; type: in vivo, mouse; conditions: daily (QD) PO administration
Description: as §2
The approximate effective daily oral dose for 50% inhibition of tumor growth (ED50) is 4 mg/kg.

human Gli-1 = assay: Pancreatic cancer model: q-RT-PCR of HH pathway genes in harvested tumors, human Gli-1; type: in vivo; conditions: BXPC-3 tumors harvested 4 hours post last dose, 40 mg/kg/day
Description: as §1

LX22 cells = assay: Lung cancer model: LX22 primary SCLC xenograft in mice; type: in vivo, human
Text: To test the activity of Compound 42 in a human SCLC tumor model, LX22 cells were implanted subcutaneously into the flank of the right leg. LX22 is primary xenograft model of SCLC derived from chemo-naive patients, which has been maintained by mouse to mouse passaging. This tumor responds to etoposide/carboplatin chemotherapy in way that closely resembles a clinical setting. LX22 regresses during chemotherapy treatment, goes through a period of remission, and then begins to recur. In the LX22 model, Compound single agent activity and its ability to modulate the chemoresistant recurrence was tested. On day 32 post tumor implant, mice were randomized into three dosing groups to receive Vehicle (30% HBPCD), Compound, or the chemotherapy combination of etoposide and carboplatin (E/P). […] Etoposide was administered i.v at 12 mg/kg on days 34, 35, 36, and 48, while Carboplatin was administered i.v. at 60 mg/kg on days 34, 41, and 48, post tumor implant. On day 50, the E/P treated mice were further randomized to receive either Vehicle (30% HPBCD) or Compound follow up treatment.

Oral multi-dose MTD = type: in vivo, mice
Hedgehog pathway = assay: Inhibition of the Hedgehog pathway in cell culture: C3H10T1/2 osteoblast differentiation, alkaline phosphatase assay; type: cell-based, Mouse; conditions: approximate EC50 for inhibition, C3H10T1/2 cells, sonic Hedgehog 250 ng/ml, alkaline phosphatase activity normalized to total protein
Text: Hedgehog pathway specific cancer cell killing effects may be ascertained using the following assay. C3H10T1/2 cells differentiate into osteoblasts when contacted with the sonic hedgehog peptide (Shh-N). Upon differentiation; these osteoblasts produce high levels of alkaline phosphatase (AP) which can be measured in an enzymatic assay (Nakamura et al., 1997 BBRC 237: 465). Compounds that block the differentiation of C3H10T1/2 into osteoblasts (a Shh dependent event) can therefore be identified by a reduction in AP production (van der Horst et al., 2003 Bone 33: 899). The assay details are described below. The results approximate (EC50 for inhibition) of the differentiation assay is shown below in Table 1.
Mouse embryonic mesoderm fibroblasts C3H10T1/2 cells (obtained from ATCC) were cultured in Basal MEM Media (Gibco/Invitrogen) supplemented with 10% heat inactivated FBS (Hyclone), 50 units/ml penicillin and 50 ug/ml streptomycin (Gibco/Invitrogen) at 37 C with 5% CO2 in air atmosphere.
C3H10T1/2 cells were plated in 96 wells with a density of 8×10^3 cells/well. Cells were grown to confluence (72 hrs). After sonic Hedgehog (250 ng/ml), and/or compound treatment, the cells were lysed in 110 μL, of lysis buffer (50 mM Tris pH 7.4, 0.1% TritonX100), plates were sonicated and lysates spun through 0.2 μm PVDF plates (Corning). 40 μL, of lysates was assayed for AP activity in alkaline buffer solution (Sigma) containing 1 mg/ml p-Nitrophenyl Phosphate. After incubating for 30 min at 37° C., the plates were read on an Envision plate reader at 405 nm. Total protein was quantified with a BCA protein assay kit from Pierce according to manufacturer's instructions. AP activity was normalized against total protein.

In the case of `CC1=C2C[C@H]3[C@@H](CC[C@@H]4C[C@H](NS(C)(=O)=O)CC[C@@]43C)[C@@H]2CC[C@@]2(C1)O[C@@H]1C[C@H](C)CN[C@H]1[C@H]2C` [Compound 42], the “reduction of tumor volume growth compared to vehicle control” value (BXPC-3 cells) is reported as 40%, the “murine Gli-1 mRNA levels (q-RT-PCR)” value (murine Gli-1 mRNA) is reported as “robust down-regulation” and the “HH pathway modulation measured by Gli-1 mRNA expression” value (Gli-1 mRNA) is reported as “dose-dependent down-regulation of the HH pathway”. The tumor growth (medulloblastoma) was “dose dependent inhibition of tumor growth, with frank tumor regression seen at higher doses”, the “human Gli-1 modulation (q-RT-PCR)” value (human Gli-1) was “no modulation” and the “single agent activity, treated vs vehicle groups” value (LX22 cells; 40 mg/kg/day, 16 consecutive doses) was “no measurable difference between the treated and vehicle groups”. The “tumor recurrence after etoposide/carboplatin (E/P) chemotherapy” value (LX22 cells; follow up treatment from day 50, 40 mg/kg/day oral, 35 consecutive doses, vs vehicle, p=0.0101) was “substantial delay in tumor recurrence” and the “oral multi-dose MTD” value (Oral multi-dose MTD) was 40 mg/kg/day.
In the case of `CC1=C2C[C@H]3[C@@H](CC=C4C[C@@H](O)CC[C@@]43C)[C@@H]2CC[C@@]2(C1)O[C@@H]1C[C@H](C)CN[C@H]1[C@H]2C` [Compound 8], the EC50 (Hedgehog pathway) is reported as over 100 nM.
`CC1=C2C[C@H]3[C@@H](CC[C@@H]4CC(=O)CC[C@@]43C)[C@@H]2CC[C@@]2(C1)O[C@@H]1C[C@H](C)CN(C(C)C)[C@H]1[C@H]2C` [Compound 10] gave an EC50 (Hedgehog pathway) of over 100 nM.
With `CC1=C2C[C@H]3[C@@H](CC[C@@H]4C[C@@H](OC(=O)CN)CC[C@@]43C)[C@@H]2CC[C@@]2(C1)O[C@@H]1C[C@H](C)CN[C@H]1[C@H]2C` [Compound 40] the EC50 (Hedgehog pathway; Mus musculus, C3H 10T1/2) was under 20 nM.
